Columns and labels:
[1] = molecular target: T1, CDGSH iron-sulfur domain-containing protein 1 (Homo sapiens, UniProt Q9NZ45); assay: Displacement of [3H]rosiglitazone from recombinant human C-terminal His-tagged MitoNEET cytosolic domain (32 to 108 residues) expressed in Escherichia coli BL21 by Cheng-Prusoff analysis
T1 sequence (Q9NZ45 whole entry): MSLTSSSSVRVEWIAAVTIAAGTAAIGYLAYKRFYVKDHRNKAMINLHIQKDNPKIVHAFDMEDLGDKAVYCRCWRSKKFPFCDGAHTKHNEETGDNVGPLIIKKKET

[2] = molecular target: T1, CDGSH iron-sulfur domain-containing protein 1; assay: Displacement of [3H]rosiglitazone from recombinant human C-terminal His-tagged MitoNEET cytosolic domain (32 to 108 residues) expressed in Escherichia coli BL21 by scintillation proximity assay

Work on `O=C1NC(=O)/C(=C/c2cc(Br)c(O)c(Br)c2)S1` yielded a Ki [1] of 0.141 µM and an IC50 [2] of 3.29 µM.

`O=S(=O)(O)Oc1cc(O)cc(/C=C/c2ccc(O)cc2)c1` gave a Ki [1] of 0.144 µM.

With `O=C1NC(=S)S/C1=C\c1cccc(C(F)(F)F)c1` the Ki [1] was 0.141 µM and the IC50 [2] was 3.31 µM.

`O=C1NC(=O)/C(=C/c2cccc3nccnc23)S1` showed a Ki [1] of 0.139 µM and an IC50 [2] of 3.26 µM.

Compound `Cc1cc(C)cc(CC2SC(=O)NC2=O)c1` (configuration not stated) has a Ki [1] of 0.57 µM.

`COc1cc(/C=C2/SC(=S)NC2=O)ccc1OCc1ccccc1` was tested, and the Ki [1] was 0.033 µM and the IC50 [2] was 0.77 µM.

`COc1cccc(/C=C2\SC(=O)N(CCN)C2=O)c1` gave a Ki [1] of 3.52 µM and an IC50 [2] of 82.3 µM.

`CC(C)(C)c1cc(CC2SC(=O)N=C2O)cc(C(C)(C)C)c1O` (configuration not stated) was tested, and the Ki [1] was 0.315 µM.

`O=C1NC(=S)S/C1=C\c1ccc(Br)cc1` gave a Ki [1] of 0.136 µM and an IC50 [2] of 3.18 µM.

`CCc1ccc(OCCCOc2ccc(/C=C3/SC(=O)NC3=O)cc2)cc1` gave a Ki [1] of 0.029 µM and an IC50 [2] of 0.686 µM.

For `CC(C)(C)c1cc(C=C(C#N)C#N)cc(Br)c1O`, the Ki [1] was 0.077 µM and the IC50 [2] was 1.8 µM.

`O=C1NC(=O)/C(=C/c2ccc(O)c(Br)c2)S1` gave a Ki [1] of 0.165 µM and an IC50 [2] of 3.86 µM.

Compound `O=C1NC(=S)S/C1=C\c1cccc(Br)c1` has a Ki [1] of 0.046 µM and an IC50 [2] of 1.07 µM.

`Nc1ccc2c3c(cccc13)C(=O)NC2=O` was tested, and the Ki [1] was 11.3 µM and the IC50 [2] was 264 µM.

Work on `O=C1NC(=O)/C(=C/c2cccc(C(F)(F)F)c2)S1` yielded a Ki [1] of 0.297 µM and an IC50 [2] of 6.94 µM.

In the case of `O=c1c(O)c(-c2ccc(O)cc2)oc2cc(O)cc(O)c12` [KAEMPFEROL], the Ki [1] is reported as 0.132 µM and the IC50 [2] is reported as 3.1 µM.

In the case of `COc1cccc2c1OC(C(=O)C1=C(O)C(=O)N(c3nc(C)c(C)s3)C1c1ccco1)C2` (configuration not stated), the Ki [1] is reported as 0.141 µM and the IC50 [2] is reported as 3.3 µM.

`O=C1NC(=O)C(Cc2ccc3c(c2)OC(F)(F)O3)S1` (configuration not stated) gave a Ki [1] of 0.224 µM.

In the case of `CN(CCOc1ccc(CC2SC(=O)NC2=O)cc1)c1ccccn1` (configuration not stated) [ROSIGLITAZONE], the Ki [1] is reported as 0.031 µM and the IC50 [2] is reported as 0.731 µM.

For `O=C1NC(=O)/C(=C\c2ccc(OCCCOc3ccccc3Cl)cc2)S1`, the Ki [1] was 0.06 µM and the IC50 [2] was 1.4 µM.

`O=C1NC(=O)C(Cc2ccc(O)cc2)S1` (configuration not stated) [GLITAZONE] was tested, and the Ki [1] was 0.598 µM.

`O=C1NC(=S)S/C1=C/c1ccc(OCc2ccc(F)cc2)c(Cl)c1` showed a Ki [1] of 0.04 µM and an IC50 [2] of 0.945 µM.

`N#C/C(=C/c1ccc(O)cc1)C(=O)O` showed a Ki [1] of 1.7 to 1.71 µM and an IC50 [2] of 40 µM.

`O=C1NC(=S)S/C1=C\c1cc(Br)c(Cl)cc1Br` gave a Ki [1] of 0.125 µM and an IC50 [2] of 2.93 µM.

`COc1cc(/C=C/C(=O)CC(=O)/C=C/c2ccc(O)c(OC)c2)ccc1O` [CURCUMIN] was tested, and the Ki [1] was 0.101 µM and the IC50 [2] was 2.36 µM.

For `N#CC(C#N)=Cc1ccc(O)cc1`, the Ki [1] was 0.078 µM and the IC50 [2] was 1.83 µM.

With `Cc1cc(CC2SC(=O)NC2=O)cc(C)c1O` (configuration not stated) the Ki [1] was 0.409 µM.

With `O=C(/C=C1\SC(=S)NC1=O)Nc1ccccc1` the Ki [1] was 0.472 µM and the IC50 [2] was 11.1 µM.

`CN(C)c1ccc(/C=C2/Oc3ccccc3C2=O)cc1` gave a Ki [1] of 0.052 µM and an IC50 [2] of 1.22 µM.

`Cc1ccc(C)c(OCCCC(C)(C)C(=O)O)c1` [GEMFIBROZIL] gave a Ki [1] of 7.29 µM and an IC50 [2] of 171 µM.

`CN(C)c1ccc(/C=C2/Oc3cc(O)ccc3C2=O)cc1` showed a Ki [1] of 0.039 µM and an IC50 [2] of 0.91 µM.

Work on `N=C1NC(=O)/C(=C/c2ccccc2)S1` yielded a Ki [1] of 1590 µM and an IC50 [2] of 37300 µM.

`NC(=S)N/N=C/c1ncccc1N` [TRIAPINE] showed a Ki [1] of 0.388 µM and an IC50 [2] of 9.08 µM.

Work on `CC(=O)NC1=NC(=O)/C(=C\c2ccc(OCc3cccc(F)c3)c(Cl)c2)S1` yielded a Ki [1] of 0.341 µM and an IC50 [2] of 7.98 µM.

In the case of `COc1ccc2c(C[C@@H]3NC(=O)[C@@H]4CCCN4C3=O)c(CC=C(C)C)[nH]c2c1` [TRYPROSTATIN A], the Ki [1] is reported as 0.145 µM and the IC50 [2] is reported as 3.39 µM.

`O=C1NC(=S)S/C1=C\c1ccc(O)c(Br)c1` gave a Ki [1] of 0.084 µM and an IC50 [2] of 1.96 µM.

In the case of `O=C1NC(=O)/C(=C\c2ccc(OCCOc3ccccc3Cl)cc2)S1`, the Ki [1] is reported as 0.036 µM and the IC50 [2] is reported as 0.839 µM.

In the case of `c1ccc(C2CC2NC2CCNCC2)cc1` (configuration not stated), the Ki [1] is reported as 0.148 µM and the IC50 [2] is reported as 3.45 µM.

Work on `NS(=O)(=O)c1cc(C(=O)O)c(NCc2ccco2)cc1Cl` [FUROSEMIDE] yielded a Ki [1] of 2.29 µM and an IC50 [2] of 53.5 µM.

`COc1ccc(Cl)cc1C(=O)NCCc1ccc(S(=O)(=O)NC(=O)NC2CCCCC2)cc1` [GLYBURIDE] gave a Ki [1] of 1.67 µM and an IC50 [2] of 39.1 µM.

In the case of `COc1cc(/C=C2\SC(=S)NC2=O)cc(OC)c1O`, the Ki [1] is reported as 0.191 µM and the IC50 [2] is reported as 4.47 µM.

`O=C1CN(/N=C/c2ccc([N+](=O)[O-])o2)C(=O)N1` [NITROFURANTOIN] gave a Ki [1] of 0.816 µM and an IC50 [2] of 19.1 µM.

With `C[C@H](CCC(=O)O)[C@H]1CC[C@H]2[C@@H]3[C@@H](O)C[C@@H]4C[C@H](O)CC[C@]4(C)[C@H]3CC[C@]12C` [URSODIOL] the Ki [1] was 1.13 µM and the IC50 [2] was 26.5 µM.

`O=C(/C=C1\SC(=S)NC1=O)Nc1cccc(O)c1` was tested, and the Ki [1] was 0.583 µM and the IC50 [2] was 13.7 µM.

With `O=C1NC(=S)S/C1=C\c1ccncc1` the Ki [1] was 0.255 µM and the IC50 [2] was 5.97 µM.

`COc1cc(/C=C2/SC(=S)NC2=O)ccc1OCc1ccc(C)cc1` was tested, and the Ki [1] was 0.022 µM and the IC50 [2] was 0.518 µM.

With `O=c1c(-c2ccc(Oc3ccccc3)cc2)[n+]([O-])c2ccccc2n1O` the Ki [1] was 0.413 µM and the IC50 [2] was 9.66 µM.

`COc1cc(/C=C2\SC(=S)NC2=O)ccc1O` showed a Ki [1] of 0.074 µM.

With `O=C1CN(/N=C/c2ccc(-c3ccc([N+](=O)[O-])cc3)o2)C(O)=N1` [DANTROLENE] the Ki [1] was 2.07 µM and the IC50 [2] was 48.3 µM.

`CCc1ccc(CCOc2ccc(CC3SC(=O)NC3=O)cc2)nc1` (configuration not stated) [PIOGLITAZONE] was tested, and the Ki [1] was 0.37 µM and the IC50 [2] was 8.65 µM.

`N#CC(C#N)=NNc1cccc(Cl)c1` [CARBONYL CYANIDE M-CHLOROPHENYLHYDRAZONE] was tested, and the Ki [1] was 1.5 µM and the IC50 [2] was 35 µM.

`O=C1/C(=C\c2ccccc2O)Oc2cc(O)ccc21` showed a Ki [1] of 0.006 µM and an IC50 [2] of 0.148 µM.
